In patent US20030003396A1, “Optical data carrier comprising a merocyanine dye as light-absorbent compound in the information layer” (priority 2001, published 2003):
Marks after values point to notes of the source that are not given here.

Tests used:
[1] = UV absorption spectra measured in solution; format: physicochemical
Source text: In the case of a write-once optical data carrier according to the invention which is written on and read by means of the light of a blue laser, preference is given to merocyanine dyes whose absorption maximum λmax1 is in the range from 340 to 410 nm, […] half of the […] one tenth of the absorbance value at λmax1 are preferably not more than 50 nm apart. Such a merocyanine dye preferably has no longer-wavelength maximum λmax2 up to a wavelength of 500 nm, particularly preferably up to 550 nm, very particularly preferably up to 600 nm.
The absorption spectra are measured, for example, in solution.
Suitable merocyanines having the required spectral properties are, in particular, those in which the dipole moment change Δμ=|μg−μag|, i.e. the positive difference between the dipole moments in the ground state and in the first excited state, is very small, preferably <5 D, particularly preferably <2 D. A method of determining such a dipole moment change Δμ is described, for example, in F. Würthner et al., Angew. Chem. 1997, 109, 2933, and in the literature cited therein. A low solvent-induced wavelength shift (dioxane/DMF) is likewise a suitable selection criterion. Preference is given to merocyanines whose solvent-induced wavelength shift Δλ=|λDMF−λdioxane|, i.e. the positive difference between the absorption wavelengths in the solvents dimethylformamide and dioxane, is <20 nm, particularly preferably <10 nm, very particularly preferably <5 nm

[2] = Solubility in coating solvent; conditions: in TFP (2,2,3,3-tetrafluoropropanol)
[3] = Table 1, on the short wavelength flank
[4] = Table 1, on the long wavelength flank
[5] = Table 2, on the short wavelength flank
[6] = Table 2, on the long wavelength flank

SMILES	ε ([1]; Table 1) [L/mol/cm]	λmax ([1]; Table 1, in dioxane) [nm]	ε ([1]; Table 2) [L/mol/cm]	λmax ([1]; Table 2, in dioxane) [nm]	other results
CCOC(=O)C1=C(C#N)C(=O)N(C)C(=O)/C1=C/C=C1\N(C)c2ccccc2C1(C)C [Example 1]	–	–	–	–	ε (molar extinction coefficient) ([1]; at absorption maximum): 56010 L/mol/cm; UV λmax ([1]; in DMF): 609 nm; UV λmax ([1]; in dioxane): 587 nm; λ1/2-λ1/10 ([1]; long wavelength flank): 27 nm; Δλ (solvent-induced wavelength shift) ([1]; |λDMF−λdioxane|): 22 nm; Solubility [2]: > 2%
CN(C)c1ncc(C(C#N)=C(C#N)C#N)s1 [Example 5]	40990	470	–	–	λ1/2-λ1/10 [1, 3]: 32^3) nm; Δλ ([1]; Table 1, |λDMF-λdioxane|): 16 nm
CCCN1C(=O)C(=Cc2cnc(N(C)C)s2)C(C)=C(C#N)C1=O [Example 6]	62860	502	–	–	λ1/2-λ1/10 [1, 3]: 33^3) nm
CCCCN(CCCC)c1ccc(C=C2C(=O)N(C)C(=O)N(C)C2=O)o1 [Example 9]	117700	–	–	–	λmax ([1]; Table 1, in DMF): 490^6) nm
CCCCN(CCCC)c1ncc(C=C2C(=O)N(CC)C(=O)C(C#N)=C2C)s1 [Example 13]	78400	508	–	–	–
CCCCN(CCCC)c1ccc(C=C2C(=O)N(CCOC)C(=O)C(C#N)=C2C)s1 [Example 14]	112260	535	–	–	λ1/2-λ1/10 [1, 4]: 13^4) nm
CCCCCCCCCCCCN1C(=O)C(=Cc2ccc(N(C)C)o2)C(=O)N(C)C1=O [Example 15]	53360	483	–	–	–
CCN1C(=O)C(=Cc2ccc(N3CCCC3)o2)C(C)=C(C#N)C1=O [Example 17]	115603	–	–	–	λmax ([1]; Table 1, in DMF): 536^6) nm; Δλ ([1]; Table 1, |λDMF-λdioxane|): 2 nm
CCCCN(CCCC)c1ccc(C=C2C(=O)N(CCC)C(=O)C(C#N)=C2C)s1 [Example 18]	112260	535	–	–	λ1/2-λ1/10 [1, 4]: 13^4) nm
CCCCN(CCCC)c1ccc(C=C2C(=O)N(C)C(=S)N(C)C2=O)o1 [Example 29]	153420	508	–	–	λ1/2-λ1/10 [1, 4]: 11^4) nm
CCN(CC)c1ncc(C=C(C#N)[n+]2ccccc2)s1.[O-][Cl+3]([O-])([O-])[O-] [Example 33]	28360	–	–	–	λmax ([1]; Table 1, in methanol): 432^5) nm

Second part, led by results:

ε ([1]; Table 1) [L/mol/cm]	λmax ([1]; Table 1, in dioxane) [nm]	ε ([1]; Table 2) [L/mol/cm]	λmax ([1]; Table 2, in dioxane) [nm]	SMILES	other results
70880	472	–	–	CCCCN(CCCC)c1ccc(C=C2C(=O)OC(C)(C)OC2=O)o1 [Example 8]	λ1/2-λ1/10 [1, 3]: 32^3) nm; Δλ ([1]; Table 1, |λDMF-λdioxane|): 5 nm
106640	539	–	–	CCCCN(CCCC)c1ccc(C=C2C(=O)N(C)C(=O)C(C#N)=C2C)o1 [Example 10]	–
128960	535	–	–	CCCCCCN1C(=O)C(=Cc2ccc(N(C)C)o2)C(C)=C(C#N)C1=O [Example 16]	Δλ ([1]; Table 1, |λDMF-λdioxane|): 1.3 nm
62026	472	–	–	CCN(CC)c1ncc(C=C2C(=O)c3ccccc3C2=O)s1 [Example 32]	λ1/2-λ1/10 [1, 3]: 42^3) nm
–	–	60390	429	CCCOC(=O)C(C#N)=CC=C1N(C)c2ccccc2C1(C)C [Example 38]	λ1/2-λ1/10 [1, 5]: 30^3) nm; Δλ ([1]; Table 2, |λDMF - λdioxane|): 7 nm
–	–	102220	487	CN1C(=CC=C2C(=O)c3ccccc3C2=O)C(C)(C)c2ccccc21 [Example 39]	λ1/2-λ1/10 [1, 5]: 35^3) nm; Δλ ([1]; Table 2, |λDMF - λdioxane|): 6 nm
–	–	76260	448	CN1C(=CC=C2C(=O)OC(C)(C)OC2=O)C(C)(C)c2ccccc21 [Example 40]	λ1/2-λ1/10 [1, 5]: 27^3) nm; Δλ ([1]; Table 2, |λDMF - λdioxane|): 2 nm
–	–	76130	469	CN1C(=CC=C2C(=O)CC(C)(C)CC2=O)C(C)(C)c2ccccc21 [Example 41]	λ1/2-λ1/10 [1, 5]: 28^3) nm; Δλ ([1]; Table 2, |λDMF - λdioxane|): 3 nm
–	–	113100	520	CCCCN1C(=O)C(=CC=C2N(C)c3ccccc3C2(C)C)C(C)=C(C#N)C1=O [Example 42]	λ1/2-λ1/10 [1, 6]: 12^4) nm; Δλ ([1]; Table 2, |λDMF - λdioxane|): 2 nm
–	–	31345	511	COc1ccc2c(c1)C(C)(C)C(=CC(C#N)=C(C#N)C#N)N2C [Example 43]	λ1/2-λ1/10 [1, 5]: 36^3) nm; Δλ ([1]; Table 2, |λDMF - λdioxane|): 6 nm
–	–	55910	519	CC1=C(C#N)C(=O)N(C2CCCCC2)C(=O)C1=CC=C1N(C)c2ccccc2C1(C)C [Example 45]	λ1/2-λ1/10 [1, 6]: 11^4) nm
–	–	47640	473	COc1ccc2c(c1)C(C)(C)C(=CC=C1C(=O)N(c3ccc(C4CCS(=O)(=O)C4)cc3)N=C1C)N2C (stereo not shown) [Example 50]	–
–	–	62720	496	CCOC(=O)C1=NN(c2ccccc2)C(=O)C1=CC=C1N(C)c2ccc(C(=O)OC)cc2C1(C)C [Example 52]	–
